These results are taken from patent US8883782B2, “Spiro-tetracyclic ring compounds as beta-secretase modulators and methods of use” (Amgen Inc., priority 2010, dated 2014).

SMILES strings stand for the structures. Like-named read-outs stand apart in the source and are kept apart here.

Assay [1] has as its system Aβ40 in conditioned medium of cells stably expressing Amyloid Precursor Protein (APP). The assay is described as follows: In vitro BACE cell-based assay (Aβ40 in conditioned medium, sandwich ELISA). The note with it: Homo sapiens, read-out: HEK cell assay. An outline of the steps:
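The sandwich ELISA pairs pAb40 capture (3 h, 4 °C) with 6E10 detection (2 h, 4 °C) and a streptavidin-europium TRF read-out. Supernatants come from APP-expressing cells grown in 10% FBS DMEM.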
For orientation: ELISA stands for enzyme-linked immunosorbent assay.

Assay [2] concerns the target Beta Secretase enzyme (BACE) (Homo sapiens, UniProt P56817). The assay is described as follows: In vitro enzymatic BACE FRET (fluorescence resonance energy transfer) assay. The format is biochemical. The note with it: average IC50, enzyme assay; read-out: BACE 1 FRET assay. The gist of the method:
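A peptide bearing a fluorophore and quencher across the cleavage site serves as substrate at 50 nM. Reactions proceed one hour in acidic acetate buffer (0.05 M, pH 4.2) containing 10% DMSO final and 100 uM genapol, then are terminated with Tris and read fluorimetrically.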

[3] abbreviates: HEK293, average IC50, HEK cells.

Chain of Beta Secretase enzyme (BACE) (P56817 46-501, species assumed): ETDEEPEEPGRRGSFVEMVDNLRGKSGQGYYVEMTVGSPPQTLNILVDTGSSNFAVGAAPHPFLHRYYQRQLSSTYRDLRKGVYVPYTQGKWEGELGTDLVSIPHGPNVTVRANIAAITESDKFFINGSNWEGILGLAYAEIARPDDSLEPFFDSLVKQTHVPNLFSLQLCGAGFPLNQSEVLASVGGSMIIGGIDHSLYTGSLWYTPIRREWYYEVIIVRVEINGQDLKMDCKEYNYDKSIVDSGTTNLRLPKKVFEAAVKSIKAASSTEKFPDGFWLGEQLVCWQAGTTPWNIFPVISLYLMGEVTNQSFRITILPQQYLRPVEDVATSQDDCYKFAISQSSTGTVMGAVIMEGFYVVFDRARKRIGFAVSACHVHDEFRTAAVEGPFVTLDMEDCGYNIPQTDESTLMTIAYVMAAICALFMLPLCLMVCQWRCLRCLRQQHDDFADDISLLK

On to `COc1cc(-c2cc3c(cn2)Oc2ccc(-c4cccc(Cl)c4)cc2[C@@]32COC(N)=N2)ccc1F` [Example 538, (5S)-7-(3-chlorophenyl)-3-(4-fluoro-3-methoxyphenyl)spiro[chromeno[2,3-c]pyridine-5,4′-[1,3]oxazol]-2′-amine], for which the IC50 was 583 nM in assay [1] (setting [3]) and 5.2 nM in assay [2].
Consider `CC1(/C=C/c2cc(F)c3c(c2)[C@]2(COC(N)=N2)c2cc(-c4cccnc4F)ccc2O3)COC1` [Example 561, (4S)-4′-fluoro-7′-(2-fluoro-3-pyridinyl)-2′-((E)-2-(3-methyl-3-oxetanyl)ethenyl)spiro[1,3-oxazole-4,9′-xanthen]-2-amine], for which the IC50 in assay [1] (setting [3]) was 3.7 nM; in assay [2], 2 nM.
In the case of `CC1(C)CC(c2cc3c(cn2)Oc2ccc(-c4ccc(F)nc4)cc2[C@@]32COC(N)=N2)=CCO1` [Example 370, (5S)-3-(2,2-dimethyl-3,6-dihydro-2H-pyran-4-yl)-7-(6-fluoro-3-pyridinyl)spiro[chromeno[2,3-c]pyridine-5,4′-[1,3]oxazol]-2′-amine], the IC50 in assay [1] (HEK293, average IC50) amounted to 23.7 nM; in assay [2], 3.6 nM.
For the molecule `Cn1cc(-c2cc(F)c3c(c2)[C@]2(COC(N)=N2)c2cc(-c4cccc(C#N)c4)ccc2O3)cn1` [Example 563, 3-((4S)-2-amino-5′-fluoro-7′-(1-methyl-1H-pyrazol-4-yl)spiro[1,3-oxazole-4,9′-xanthen]-2′-yl)benzonitrile], the IC50 in assay [1] (setting [3]) was 12.4 nM; in assay [2] it was 1.3 nM.
Take `NC1=N[C@@]2(CO1)c1cc(OCc3ccccn3)ccc1Oc1ncc(C3=CCOCC3)cc12` [Example 972, (5S)-3-(3,6-dihydro-2H-pyran-4-yl)-7-(2-pyridinylmethoxy)spiro[chromeno[2,3-b]pyridine-5,4′-[1,3]oxazol]-2′-amine]: the IC50 came to 629 nM in assay [1] (HEK293, average IC50) and 89.6 nM in assay [2].
Consider `NC1=N[C@]2(CO1)c1cc(-c3cccnc3F)ccc1Oc1c2cc(Br)nc1F` [Example 736, (5R)-3-bromo-1-fluoro-7-(2-fluoro-3-pyridinyl)spiro[chromeno[2,3-c]pyridine-5,4′-[1,3]oxazol]-2′-amine], for which the IC50 is not below 10000 nM in assay [1] (HEK293, average IC50) and 2090 nM in assay [2].
For the molecule `CC1(/C=C/c2cnc3c(c2)[C@]2(COC(N)=N2)c2cc(-c4cccnc4F)ccc2O3)COC1` [Example 175, (5S)-7-(2-fluoro-3-pyridinyl)-3-((E)-2-(3-methyl-3-oxetanyl)ethenyl)spiro[chromeno[2,3-b]pyridine-5,4′-[1,3]oxazol]-2′-amine], the IC50 is 1 nM in assay [1] (HEK293, average IC50) and 0.5 nM in assay [2].
As for `CC1(C#Cc2cc3c(cn2)Oc2ccc(-c4cccnc4F)cc2[C@@]32CSC(N)=N2)COC1` [Example 995, (5S)-7-(2-fluoro-3-pyridinyl)-3-((3-methyl-3-oxetanyl)ethynyl)spiro[chromeno[2,3-c]pyridine-5,4′-[1,3]thiazol]-2′-amine], the IC50 is 15 nM in assay [1] (HEK293, average IC50) and 0.8 nM in assay [2].
`CC#Cc1cncc(-c2ccc3c(c2)[C@@]2(COC(N)=N2)c2cc(C4=CCOCC4)nc(OC)c2O3)c1` [Example 835, (5S)-3-(3,6-dihydro-2H-pyran-4-yl)-1-methoxy-7-(5-(1-propyn-1-yl)-3-pyridinyl)spiro[chromeno[2,3-c]pyridine-5,4′-[1,3]oxazol]-2′-amine]: the IC50 in assay [1] (HEK293, average IC50) is 7 nM; in assay [2], 0.6 nM.
For `NC1=N[C@@]2(CO1)c1cc(-c3cccnc3F)ccc1Oc1c(F)cc([C@H]3CCCOC3)cc12` [Example 287, (4S)-4′-fluoro-7′-(2-fluoro-3-pyridinyl)-2′-((3R)-tetrahydro-2H-pyran-3-yl)spiro[1,3-oxazole-4,9′-xanthen]-2-amine], in that order: 21.7 nM and 1.7 nM.
As for `COc1nc(C2=CCOCC2)cc2c1Oc1ccc(-c3cccnc3)cc1[C@@]21COC(N)=N1` [Example 840, (5S)-3-(3,6-dihydro-2H-pyran-4-yl)-1-methoxy-7-(3-pyridinyl)spiro[chromeno[2,3-c]pyridine-5,4′-[1,3]oxazol]-2′-amine], the IC50 stood at 15 nM in assay [1] (HEK293, average IC50) and 4.3 nM in assay [2].
On to `CC(C)(O)CCc1cc(F)c2c(c1)[C@]1(COC(N)=N1)c1cc(-c3cccnc3F)ccc1O2` [Example 92, (S)-4-(2-amino-5′-fluoro-2′-(2-fluoropyridin-3-yl)-5H-spiro[oxazole-4,9′-xanthene]-7′-yl)-2-methylbutan-2-ol], for which the IC50 worked out at 4.2 nM in assay [1] (HEK293, average IC50) and 1 nM in assay [2].
Regarding `COC(C)(C)C#Cc1cnc2c(c1)[C@]1(COC(N)=N1)c1cc(-c3cncnc3)c(F)cc1O2` [Example 643, (5S)-8-fluoro-3-(3-methoxy-3-methyl-1-butyn-1-yl)-7-(5-pyrimidinyl)spiro[chromeno[2,3-b]pyridine-5,4′-[1,3]oxazol]-2′-amine], the IC50 in assay [1] (setting [3]) stood at 15 nM; in assay [2], 1.1 nM.
Regarding `COc1nc(C2CCCOC2)cc2c1Oc1ccc(-c3cccnc3)cc1[C@@]21COC(N)=N1` (stereo partly drawn) [Example 845, (5S)-1-methoxy-7-(3-pyridinyl)-3-(tetrahydro-2H-pyran-3-yl)spiro[chromeno[2,3-c]pyridine-5,4′-[1,3]oxazol]-2′-amine], the IC50 in assay [1] (HEK293, average IC50) is 70 nM; in assay [2], 15.5 nM.
Turning to `NC1=NC2(CO1)c1cc(-c3cccnc3F)ccc1Oc1nc(F)c(-c3ccnc(F)c3)cc12` (stereo not shown) [Example 151, 2-fluoro-7-(2-fluoro-3-pyridinyl)-3-(2-fluoro-4-pyridinyl)spiro[chromeno[2,3-b]pyridine-5,4′-[1,3]oxazol]-2′-amine], the IC50 was 50.8 nM in assay [1] (HEK293, average IC50) and 1.3 nM in assay [2].
Regarding `COc1cncc(-c2ccc3c(c2)[C@@]2(COC(N)=N2)c2cc(C#CC4(C)COC4)cnc2O3)c1` [Example 461, (5S)-7-(5-methoxy-3-pyridinyl)-3-((3-methyl-3-oxetanyl)ethynyl)spiro[chromeno[2,3-b]pyridine-5,4′-[1,3]oxazol]-2′-amine], the IC50 in assay [1] (setting [3]) turned out to be 6.3 nM; in assay [2], 1.8 nM.
For `Cc1ncccc1-c1ccc2c(c1)[C@@]1(COC(N)=N1)c1cc(-c3ccnc(F)c3)ncc1O2` [Example 248, (5S)-3-(2-fluoro-4-pyridinyl)-7-(2-methyl-3-pyridinyl)spiro[chromeno[2,3-c]pyridine-5,4′-[1,3]oxazol]-2′-amine], the IC50 in assay [1] (HEK293, average IC50) worked out at 191 nM; in assay [2] it was 99.1 nM.
For `NC1=N[C@@]2(CO1)c1cc(-c3ccc(F)nc3)ccc1Oc1c(F)cc(OCC3CCOCC3)cc12` [Example 258, (4S)-4′-fluoro-7′-(6-fluoro-3-pyridinyl)-2′-(tetrahydro-2H-pyran-4-ylmethoxy)spiro[1,3-oxazole-4,9′-xanthen]-2-amine], in that order: 30.4 nM and 6 nM.
Turning to `NC1=N[C@]2(CO1)c1cc(C3=CCOCC3)cc(F)c1Oc1ccc(-c3cccnc3)c(F)c12` [Example 1046, (4R)-7′-(3,6-dihydro-2H-pyran-4-yl)-1′,5′-difluoro-2′-(3-pyridinyl)spiro[1,3-oxazole-4,9′-xanthen]-2-amine], the IC50 in assay [1] (HEK293, average IC50) was found to be 209 nM; in assay [2], 21.2 nM.
For the molecule `Cn1cc(-c2cc(F)c3c(c2)[C@]2(COC(N)=N2)c2cc(-c4c(F)ccnc4F)ccc2O3)cn1` [Example 859, (4S)-7′-(2,4-difluoro-3-pyridinyl)-4′-fluoro-2′-(1-methyl-1H-pyrazol-4-yl)spiro[1,3-oxazole-4,9′-xanthen]-2-amine], the IC50 in assay [1] (setting [3]) stood at 11 nM; in assay [2], 0.5 nM.
